# In the supplement of paper PMC10307832:
# How the values were obtained:
# Experiment in all cases: relative viability (nuclei count vs DMSO), 5 days (fraction); higher = more cells survive
# [1] = compound: CC1=CN2C(=O)C=C(N=C2C(=C1)C(C)NC3=CC=CC=C3)N4CCOCC4 [TGX 221] + O=C(CCCCCCC(=O)Nc1ccccc1)NO [Vorinostat] (partner 1 µM)
# Outline: (§1)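 Lung cancer cell lines in 1536-well plates got either a single drug or a fixed anchor-drug dose together with five library-drug doses (not always all listed) in √10 steps, by pin tool, on the day after seeding. Nuclei were counted after 5 days, and relative viability is the treated-to-vehicle ratio of nuclei counts. Values are medians of duplicate plates.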
# [2] = compound: O=C(CCCCCCNC(=O)c1cnc(N(c2ccccc2)c2ccccc2)nc1)NO [Ricolinostat] + O=C(CCCCCCC(=O)Nc1ccccc1)NO [Vorinostat] (partner 1 µM)
# Outline: as §1
# [3] = compound: CC1=CN2C(=O)C=C(N=C2C(=C1)C(C)NC3=CC=CC=C3)N4CCOCC4 [TGX 221] + C[C@@H](Oc1cc(-c2cnn(C3CCNCC3)c2)cnc1N)c1c(Cl)ccc(F)c1Cl [Crizotinib] (partner 1 µM)
# Outline: as §1
# [4] = compound: CC1=CN2C(=O)C=C(N=C2C(=C1)C(C)NC3=CC=CC=C3)N4CCOCC4 [TGX 221] + Nc1ncn([C@H]2C[C@H](O)[C@@H](CO)O2)c(=O)n1 [Decitabine] (partner 2 µM)
# Outline: as §1
Cell Line,relative viability ([1]; first compound 0.08 µM),relative viability ([1]; first compound 0.253 µM),relative viability ([1]; first compound 0.8 µM),relative viability ([1]; first compound 2.53 µM),relative viability ([1]; first compound 8 µM),relative viability ([2]; first compound 0.08 µM),relative viability ([2]; first compound 0.253 µM),relative viability ([2]; first compound 0.8 µM),relative viability ([2]; first compound 2.53 µM),relative viability ([3]; first compound 0.08 µM),relative viability ([3]; first compound 0.253 µM),relative viability ([3]; first compound 0.8 µM),relative viability ([3]; first compound 2.53 µM),relative viability ([3]; first compound 8 µM),relative viability ([4]; first compound 0.08 µM),relative viability ([4]; first compound 0.253 µM),relative viability ([4]; first compound 0.8 µM),relative viability ([4]; first compound 2.53 µM),relative viability ([4]; first compound 8 µM)
SK-LU-1,0.644,0.682,0.72,0.776,0.712,0.669,0.613,0.731,0.607,0.836,0.809,0.901,0.825,0.803,0.612,0.626,0.522,0.588,0.626
SK-MES-1,1.03,0.997,1.16,0.987,0.894,0.912,1.03,1.07,0.932,1.05,0.982,0.998,0.841,0.582,0.397,0.365,0.373,0.395,0.36
SW 1573,0.648,0.655,0.739,0.888,0.778,0.554,0.667,0.751,0.49,0.723,0.72,0.74,0.769,0.756,0.457,0.387,0.535,0.517,0.524
UMC-11,0.417,0.391,0.402,0.373,0.359,0.389,0.377,0.265,0.187,0.66,0.559,0.557,0.591,0.661,0.522,0.545,0.725,0.572,0.62
